Laboratory results reported in paper PMC4573853 (Genes & Development, 2015).
No end group written: not given here.

Assays:
[1] = test system: taf14Δ strain (BY4741 background); assay: Spotting assay on 6-azauracil medium; type: cell-based, S. cerevisiae; settings: Fig. 4F
taf14Δ cells [2] = assay: Spotting assay, sensitivity to DNA-damaging agents; type: cell-based, S. cerevisiae; settings: Supplemental Fig. S3D
taf14Δ cells [3] = settings: ref Zhang et al. 2004; cited from earlier work
[4] = biological target: T1, Taf14 YEATS (residues 1–132) (Saccharomyces cerevisiae, UniProt P35189); assay: NMR chemical shift perturbation; type: binding, S. cerevisiae; settings: for amide resonance changes / interaction: 15N-labeled Taf14 YEATS (1–132), peptide titration
T1 sequence (P35189 1-132): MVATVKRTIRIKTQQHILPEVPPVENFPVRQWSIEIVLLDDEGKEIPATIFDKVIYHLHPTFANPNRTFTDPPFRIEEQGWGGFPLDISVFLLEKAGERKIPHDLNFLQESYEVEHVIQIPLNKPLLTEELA

Yaf9 YEATS domain = settings: capacity to bind in vitro; ref Li et al. 2014; cited from earlier work
[5] = 1H,15N HSQC, Supplemental Fig. S2A

Molecule: O=c1cn[nH]c(=O)[nH]1 [6-AU, 6-azauracil]
- rescue of 6-AU growth by taf14W81A ([1]; taf14Δ expressing taf14W81A): unable to rescue
- rescue of 6-AU sickness by exogenous TAF14 ([1]; taf14Δ expressing wild-type TAF14): could rescue

Molecule: NC(=O)NO [HU, hydroxyurea]
- sensitivity of taf14Δ strain (taf14Δ cells [2]): sensitivity
- sensitivity of taf14Δ cells (taf14Δ cells [3]): sensitive

Molecule: COS(C)(=O)=O [MMS, methane methylsulfonate]
- effect of Taf14 YEATS disruption on response to agent (taf14Δ cells [2]; taf14Δ expressing taf14W81A): significantly impaired the response
- sensitivity of taf14Δ cells (taf14Δ cells [3]): sensitive

Molecule: CC(=O)NCCCC[C@H](N)C(=O)O [acetylated lysine]
- amide resonance changes / interaction ([4]; 1H,15N HSQC): CSPs primarily in an acetyllysine-binding pocket

Molecule: H3K9ac1–12: H3K9ac1–12 peptide
- amide resonance changes / interaction ([4]; 1H,15N HSQC): strong interaction

Molecule: H3K9ac5–13: H3K9ac5–13 peptide (Ac-QTARK(Ac)STGG)
- binding relative to H3K9ac1–12 [4, 5]: slightly decreased
- resonance perturbation pattern relative to H3K9ac1–12 [4, 5]: nearly identical resonance perturbation pattern

Molecule: H3K27ac21–31: H3K27ac21–31 peptide (ATKAARK(Ac)SAPA)
- CSP magnitude relative to H3K9ac ([4]; 1H,15N HSQC, Supplemental Fig. S2B): smaller in magnitude
- binding relative to H3K9ac ([4]; inferred from CSP magnitude, Supplemental Fig. S2B): weaker

Molecule: H3K27ac: H3 peptide acetylated at Lys27 (ATKAARK(Ac)SAPA)
- preference of Yaf9 YEATS domain (Yaf9 YEATS domain): capacity to bind

Molecule: phleomycin
- sensitivity of taf14Δ strain (taf14Δ cells [2]): sensitivity
